According to patent US10233191B2, “Fused piperidine amides as modulators of ion channels” (Vertex Pharmaceuticals Incorporated, priority 2013, dated 2019):

biological target: T1, NaV 1.7 (Homo sapiens, UniProt Q15858); test: E-VIPR optical membrane potential assay with electrical stimulation; assay type: cell-based; details: active against one or more sodium channels; assay/subtype not specified in Table 4; read-out: IC50 Binned Activity Data
T1 construct: expressed in transfected cells; host or cells: HEK cells
Source text: E-VIPR Optical Membrane Potential Assay Method with Electrical Stimulation
Sodium channels are voltage-dependent proteins that can be activated by inducing membrane voltage changes by applying electric fields. The electrical stimulation instrument and methods of use are described in Ion Channel Assay Methods PCT/US01/21652, herein incorporated by reference and are referred to as E-VIPR. The instrument comprises a microtiter plate handler, an optical system for exciting the coumarin dye while simultaneously recording the coumarin and oxonol emissions, a waveform generator, a current- or voltage-controlled amplifier, and a device for inserting electrodes in well. Under integrated computer control, this instrument passes user-programmed electrical stimulus protocols to cells within the wells of the microtiter plate.
24 hours before the assay on E-VIPR, HEK cells expressing human NaV subtype, like NaV 1.7, are seeded in 384-well poly-lysine coated plates at 15,000-20,000 cells per well. Other subtypes are performed in an analogous mode in a cell line expressing the NaV of interest. HEK cells are grown in media (exact composition is specific to each cell type and NaV subtype) supplemented with 10% FBS (Fetal Bovine Serum, qualified; GibcoBRL #16140-071) and 1% Pen-Strep (Penicillin-Streptomycin; GibcoBRL #15140-122). Cells are grown in vented cap flasks, in 90% humidity and 10% CO2, to 100% confluence. They are usually split by trypsinization 1:10 or 1:20, depending on scheduling needs, and grown for 2-3 days before the next split.
• 100 mg/mL Pluronic F-127 (Sigma #P2443), in dry DMSO • Compound Plates: 384-well round bottom plate, e.g. Corning 384-well Polypropylene Round Bottom #3656 • Cell Plates: 384-well tissue culture treated plate, e.g. Greiner #781091-1B • 10 mM DiSBAC6(3) (Aurora #00-100-010) in dry DMSO • 10 mM CC2-DMPE (Aurora #00-100-008) in dry DMSO • 200 mM ABSC1 in H2O
Bath1 buffer. Glucose 10 mM (1.8 g/L), Magnesium Chloride (Anhydrous), 1 mM (0.095 g/L), Calcium Chloride, 2 mM (0.222 g/L), HEPES 10 mM (2.38 g/L), Potassium Chloride, 4.5 mM (0.335 g/L), Sodium Chloride 160 mM (9.35 g/L).
Hexyl Dye Solution: Bath1 Buffer+0.5% β-cyclodextrin (make this prior to use, Sigma #C4767), 8 μM CC2-DMPE+2.5 μM DiSBAC6(3). To make the solution Add volume of 10% Pluronic F127 stock equal to volumes of CC2-DMPE+DiSBAC6(3). The order of preparation is first mix Pluronic and CC2-DMPE, then add DiSBAC6(3) while vortexing, then add Bath1+β-Cyclodextrin.
1) Pre-spot compounds (in neat DMSO) into compound plates. Vehicle control (neat DMSO), the positive control (20 mM DMSO stock tetracaine, 125 μM final in assay) and test compounds are added to each well at 160× desired final concentration in neat DMSO. Final compound plate volume will be 80 μL (80-fold intermediate dilution from 1 μL DMSO spot; 160-fold final dilution after transfer to cell plate). Final DMSO concentration for all wells in assay is 0.625%.
2) Prepare Hexyl Dye Solution.
3) Prepare cell plates. On the day of the assay, medium is aspirated and cells are washed three times with 100 μL of Bath1 Solution, maintaining 25 μL residual volume in each well.
4) Dispense 25 μL per well of Hexyl Dye Solution into cell plates. Incubate for 20-35 minutes at room temp or ambient conditions.
5) Dispense 80 μL per well of Bath1 into compound plates. Acid Yellow-17 (1 mM) is added and Potassium Chloride can be altered from 4.5 to 20 mM depending on the NaV subtype and assay sensitivity.
6) Wash cell plates three times with 100 μL per well of Bath1, leaving 25 μL of residual volume. Then transfer 25 uL per well from Compound Plates to Cell Plates. Incubate for 20-35 minutes at room temp/ambient condition
7) Read Plate on E-VIPR. Use the current-controlled amplifier to deliver stimulation wave pulses for typically 9 seconds and a scan rate of 400 Hz. A pre-stimulus recording is performed for 0.5 seconds to obtain the un-stimulated intensities baseline. […]

T1 sequence (Q15858 whole entry): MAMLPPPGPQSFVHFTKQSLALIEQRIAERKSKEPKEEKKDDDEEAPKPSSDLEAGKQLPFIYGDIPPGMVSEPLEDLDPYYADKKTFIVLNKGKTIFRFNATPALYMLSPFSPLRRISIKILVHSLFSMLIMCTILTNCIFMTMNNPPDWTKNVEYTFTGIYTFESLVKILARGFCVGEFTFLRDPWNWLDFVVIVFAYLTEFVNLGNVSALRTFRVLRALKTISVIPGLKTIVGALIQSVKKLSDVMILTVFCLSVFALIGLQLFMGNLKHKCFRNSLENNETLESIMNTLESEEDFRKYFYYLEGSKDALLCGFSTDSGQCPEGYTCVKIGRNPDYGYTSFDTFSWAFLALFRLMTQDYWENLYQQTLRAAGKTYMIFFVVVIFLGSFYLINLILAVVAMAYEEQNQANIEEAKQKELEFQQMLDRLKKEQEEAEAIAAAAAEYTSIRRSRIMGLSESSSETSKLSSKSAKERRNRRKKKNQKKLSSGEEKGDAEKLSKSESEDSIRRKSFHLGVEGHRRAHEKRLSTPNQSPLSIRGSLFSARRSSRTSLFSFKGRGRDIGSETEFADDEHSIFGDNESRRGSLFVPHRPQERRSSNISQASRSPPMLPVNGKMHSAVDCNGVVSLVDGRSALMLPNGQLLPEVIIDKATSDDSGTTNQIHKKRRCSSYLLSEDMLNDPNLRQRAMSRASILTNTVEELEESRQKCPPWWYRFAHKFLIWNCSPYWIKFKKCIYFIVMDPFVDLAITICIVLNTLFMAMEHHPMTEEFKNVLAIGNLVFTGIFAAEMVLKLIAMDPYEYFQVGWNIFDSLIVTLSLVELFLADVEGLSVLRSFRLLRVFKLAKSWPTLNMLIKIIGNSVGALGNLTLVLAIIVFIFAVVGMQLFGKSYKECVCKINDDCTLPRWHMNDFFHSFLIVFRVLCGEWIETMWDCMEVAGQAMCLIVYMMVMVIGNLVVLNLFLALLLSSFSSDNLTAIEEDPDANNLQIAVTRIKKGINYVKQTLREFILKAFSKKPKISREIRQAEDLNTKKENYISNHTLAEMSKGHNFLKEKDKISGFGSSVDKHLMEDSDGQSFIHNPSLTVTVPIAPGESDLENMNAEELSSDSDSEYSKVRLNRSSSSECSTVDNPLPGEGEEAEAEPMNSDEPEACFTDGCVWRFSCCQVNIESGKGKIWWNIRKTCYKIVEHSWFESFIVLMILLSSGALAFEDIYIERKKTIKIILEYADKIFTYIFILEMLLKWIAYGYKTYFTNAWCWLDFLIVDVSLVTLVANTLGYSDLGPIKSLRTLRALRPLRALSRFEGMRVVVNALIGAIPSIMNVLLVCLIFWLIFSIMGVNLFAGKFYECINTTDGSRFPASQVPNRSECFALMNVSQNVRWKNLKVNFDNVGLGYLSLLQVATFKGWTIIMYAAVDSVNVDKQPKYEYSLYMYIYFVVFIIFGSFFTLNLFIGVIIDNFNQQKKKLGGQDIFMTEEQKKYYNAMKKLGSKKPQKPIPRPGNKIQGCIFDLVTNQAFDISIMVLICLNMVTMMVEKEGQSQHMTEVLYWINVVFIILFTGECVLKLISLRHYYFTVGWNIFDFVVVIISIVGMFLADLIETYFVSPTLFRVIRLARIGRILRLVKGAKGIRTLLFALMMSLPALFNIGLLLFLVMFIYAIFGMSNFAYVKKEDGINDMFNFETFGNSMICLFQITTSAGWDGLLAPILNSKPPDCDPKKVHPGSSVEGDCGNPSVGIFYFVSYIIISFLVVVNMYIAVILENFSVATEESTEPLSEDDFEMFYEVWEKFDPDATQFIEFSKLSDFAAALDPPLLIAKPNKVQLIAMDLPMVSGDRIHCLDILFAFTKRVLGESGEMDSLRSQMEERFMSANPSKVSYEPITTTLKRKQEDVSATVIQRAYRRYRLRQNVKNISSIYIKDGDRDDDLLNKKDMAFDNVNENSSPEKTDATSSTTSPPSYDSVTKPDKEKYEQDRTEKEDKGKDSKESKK

IC50 | Structure (SMILES)
≤ 2000 nM | COc1cc(C(=O)N2CC[C@]3(c4ncccc4F)OCOC3C2)ccc1OCC1CC(F)(F)C1 (some centres unmarked) [Compound 1]
≤ 2000 nM | Cc1cc(C(=O)N2CC[C@]3(c4cc(C(F)(F)F)ccn4)OCOC3C2)ccc1OCC(C)(C)F (some centres unmarked) [Compound 2]
≤ 2000 nM | COc1ccnc([C@]23CCN(C(=O)c4ccc(OCC(F)(F)C(F)F)c(OC)c4)CC2OCO3)c1 (some centres unmarked) [Compound 3]
≤ 2000 nM | COc1cc(C(=O)N2CC[C@]3(c4cc(F)cc(F)c4)OCOC3C2)ccc1OCCOC(F)(F)F (some centres unmarked) [Compound 4]
> 5000 nM | Cc1cc(C(=O)N2CC[C@]3(c4ncccn4)OCOC3C2)ccc1OC(C)C (some centres unmarked) [Compound 5]
> 5000 nM | COc1cc(C(=O)N2CC[C@@]3(c4nccs4)OCOC3C2)ccc1OCC(C)(C)F (some centres unmarked) [Compound 6]
> 5000 nM | COc1cc(C(=O)N2CC[C@]3(c4ncccn4)OCOC3C2)ccc1OCC(C)(C)F (some centres unmarked) [Compound 7]
> 5000 nM | COc1cc(C(=O)N2CC[C@@]3(c4ccccc4)OCOC3C2)ccc1OCC(C)(C)O (some centres unmarked) [Compound 8]
> 5000 nM | O=C(c1ccc(O)c(Cl)c1)N1CC[C@]2(c3ccccn3)OCOC2C1 (some centres unmarked) [Compound 9]
> 5000 nM | CC(C)Oc1ccc(C(=O)N2CCC3(c4ccccc4)CC3C2)cn1 (centres unmarked) [Compound 10]
> 5000 nM | COc1c(F)cccc1C(=O)N1CCC2(c3ccccc3)CC2C1 (centres unmarked) [Compound 11]
> 5000 nM | COc1cc(C(=O)N2CC[C@]3(c4ncccn4)OCOC3C2)ccc1OCCOC(F)(F)F (some centres unmarked) [Compound 12]
> 5000 nM | Cc1cc(C(=O)N2CCC3(c4ccccc4)OCC3C2)ccc1OC(C)C (centres unmarked) [Compound 13]
2000 to 5000 nM | COc1ccc(C(=O)N2CCC3(c4ccccc4)CC3C2)nc1C (centres unmarked) [Compound 14]
2000 to 5000 nM | CCS(=O)(=O)c1ccc(C(=O)N2CCC3(c4ccccc4)CC3C2)cc1C (centres unmarked) [Compound 15]
2000 to 5000 nM | CC(C)Oc1ccc(C(=O)N2CCC3(c4ccccc4)CC3C2)cc1F (centres unmarked) [Compound 16]

IC50 | Structure (SMILES)
2000 to 5000 nM | CC(C)(O)COc1ccc(C(=O)N2CC[C@@]3(c4nccs4)OCOC3C2)cc1Cl (some centres unmarked) [Compound 17]
2000 to 5000 nM | Cc1cc(C(=O)N2CCC3(c4ccccc4)CC3C2)cnc1OC(C)C (centres unmarked) [Compound 18]
2000 to 5000 nM | CC(C)Oc1ccc(C(=O)N2CCC3(c4ccccc4)CC3C2)c(F)c1 (centres unmarked) [Compound 19]
2000 to 5000 nM | O=C(c1cccc2c1OCC2)N1CCC2(c3ccccc3)CC2C1 (centres unmarked) [Compound 20]
2000 to 5000 nM | CC(C)COc1ccc(C(=O)N2CCC3(c4ccccc4)CC3C2)nc1 (centres unmarked) [Compound 21]
2000 to 5000 nM | CC(C)(O)COc1ccc(C(=O)N2CC[C@]3(c4nccs4)OCOC3C2)cc1Cl (some centres unmarked) [Compound 22]
2000 to 5000 nM | COc1cc(C(=O)N2CC[C@]3(c4ccccn4)OCOC3C2)ccc1OCC(C)(C)F (some centres unmarked) [Compound 23]
2000 to 5000 nM | COc1cc(C(=O)N2CC[C@]3(c4nccs4)OCOC3C2)ccc1OCC(C)(C)F (some centres unmarked) [Compound 24]
2000 to 5000 nM | Cc1cc(C(=O)N2CC[C@]3(c4ccccn4)OCOC3C2)ccc1OCC(C)(C)O (some centres unmarked) [Compound 25]
2000 to 5000 nM | O=C(c1ccc(S(=O)(=O)NC2CC2)cc1)N1CCC2(c3ccccc3)CC2C1 (centres unmarked) [Compound 26]
≤ 2000 nM | Cc1cc(C(=O)N2CC[C@]3(c4ncccn4)OCOC3C2)ccc1OCC(C)(C)F (some centres unmarked) [Compound 27]
≤ 2000 nM | O=C(c1ccc(C2(O)CCC2)cc1)N1CCC2(c3ccccc3)CC2C1 (centres unmarked) [Compound 28]
≤ 2000 nM | CC(C)(O)c1ccc(C(=O)N2CCC3(c4ccccc4)CC3C2)cc1 (centres unmarked) [Compound 29]
≤ 2000 nM | Cc1cc(C(=O)N2CC[C@@]3(c4nccs4)OCOC3C2)ccc1OCC(C)(C)O (some centres unmarked) [Compound 30]
≤ 2000 nM | Cc1cc(C(=O)N2CC[C@]3(c4nccs4)OCOC3C2)ccc1OCC(C)(C)O (some centres unmarked) [Compound 31]
≤ 2000 nM | COc1cc(C(=O)N2CC[C@]3(c4ccc(F)cc4)OCOC3C2)ccc1COCCC(F)(F)F (some centres unmarked) [Compound 32]
